# Test system: P. falciparum 3D7 growth, pLDH absorbance
# Assay: P. falciparum 3D7 growth inhibition, dose response, strain 3D7 (AID 2305)
row,SMILES,IC50
1,COc1cc2c(cc1S(=O)(=O)c1ccc(OCc3ccc(Cl)cc3)cc1)CCN(Cc1ccc(NC(C)=O)s1)CC2,920 nM
2,CCOC(=O)c1ccc(NC(=O)Nc2cccc(-c3ccc(-c4nc5ccc(C(F)(F)F)cc5[nH]4)cc3)c2)cc1,210 nM
3,O=C(N[C@H]1CCN(Cc2ccc(OCCN3CCNCC3)c3ccccc23)C1)c1ccc(Cl)c(Cl)c1,750 nM
4,Cc1cc(N2CCCC2)nc(Nc2ccc(NC(=O)CC(C)C)cc2)n1,840 nM
5,CN(N=Cc1ccccc1)C(N)=NCCCC#Cc1cccc(CN2CCCC2)c1,1790 nM
6,c1ccc2c(c1)CN(CC1CCOCC1)CC1(CCN(Cc3c[nH]c4cnccc34)CC1)O2,1550 nM
7,O=C(/C=C/c1ccc(Cl)c(Cl)c1)N1CCC(CN2CCC(c3c(Br)[nH]c4ccccc34)CC2)CC1,290 nM
8,O=C(/C=C/c1ccc(-c2nc3ccc(Cl)cc3[nH]2)cc1)NCc1cccc(F)c1,640 nM
9,CC(C)c1ccc(NC(=O)NCC2CCCN(CCCCCNC(=O)/C=C/c3ccc(Cl)c(Cl)c3)C2)cc1 (stereo not given),810 nM
10,CN1CCN(c2ccc(-c3nc4c(C(N)=O)c(OCc5cc(Cl)cc(Cl)c5)ccc4[nH]3)cc2)CC1,660 nM
11,CC(C)CCNc1nc(NCCCc2ccccc2)c2cc(O)ccc2n1,170 nM
12,Cc1ccc(CN2CCCN(Cc3cccc(NC(=O)c4cc5ccccc5s4)c3)CC2)cc1,1190 nM
13,O=C(Nc1ccc2c(c1)CCN2C1CCN(Cc2cc(F)cc(F)c2F)C1)c1ccco1 (stereo not given),590 nM
14,CN(C)Cc1cc2c(O)c(Cc3ccccc3)ccc2o1,1090 nM
15,Cc1ccc(Nc2nc(C)cc(N3CCN(CCc4ccccc4)CC3)n2)cc1,970 nM
16,COCc1ccccc1C(=O)NCCOc1cc(C)cc(C)c1,350 nM
17,O=c1cc(NCCCNCc2[nH]c3cc(Cl)ccc3c2Cl)[nH]c2ccccc12,910 nM
18,COc1cc(CNCCCNc2nc3ccsc3c(=O)[nH]2)c2[nH]cc(Cl)c2c1,890 nM
19,Cc1cc(N(C)C)nc(Nc2ccc(NC(=O)c3ccccc3F)cc2)n1,1160 nM
20,Nc1ncc(-c2ccc(NC(=O)Nc3cc(C(F)(F)F)ccc3F)cc2)c(N)n1,720 nM
21,CCCCOc1ccc(C(=O)C(CCC(CNC(C)(C)C)C(=O)c2ccc(OCCCC)cc2)CNC(C)(C)C)cc1 (stereo not given),1020 nM
22,COc1ccccc1NC(=O)CSc1nc2cccnc2n1-c1ccccc1OC,360 nM
23,CCC(CC(C)C(=O)O)=C(c1ccccc1)c1ccccc1 (stereo not given),220 nM
24,O=C(/C=C/c1ccc(Cl)c(Cl)c1)NCCCCCN1CCC(NC(=O)Nc2ccc(F)c(Cl)c2)CC1,620 nM
25,O=C(Nc1ccc(C(F)(F)F)cc1)NC1CCN(c2ccnc3cc(Cl)ccc23)CC1,180 nM

row,SMILES,IC50
1,CCNC(=O)Nc1cccc(-c2cccc(-c3nc4ccc(C(F)(F)F)cc4[nH]3)c2)c1,680 nM
2,CCC(=O)Oc1ccc(NC(=O)c2cccc(OC)c2)cc1,770 nM
3,COc1ccccc1CCNc1ncc(F)c(N[C@@H](Cc2ccccc2)C(=O)NCCc2ccccc2)n1,960 nM
4,O=C(CCn1cncn1)N1CCCC(c2[nH]c3ccccc3c2-c2ccncc2)C1 (stereo not given),800 nM
5,Cc1ccc(NC(=O)c2ccc(CN3CCCN(CCC(C)C)CC3)cc2)cc1F,610 nM
6,Cc1cccc2[nH]c(-c3cccc(-c4ccc(NC(=O)Cc5cnc[nH]5)cc4)c3)nc12,690 nM
7,COCCOCCOCCn1ccc2c3c(N)nc(N)nc3ccc21,260 nM
8,COc1ccc(N2C(N)=NC(N)=NC2(C)C)cc1,110 nM
9,CCc1c(CCNCCCCCCNCCc2ccc(Br)cc2)ccc(O)c1O,900 nM
10,Cc1ccc(Cn2ncc(N3CCNCC3)c(Cl)c2=O)cc1NC(=O)Nc1ccc(-c2ccccc2)cc1,1120 nM
11,CCC(=Cc1cccc([N+](=O)[O-])c1)C(=O)NCC1CCN(c2nc(N)c3cc(OC)c(OC)cc3n2)CC1,240 nM
12,COc1ccc(CNCCCCCCCNCc2ccc(Cl)c(Cl)c2)cc1Cl,1220 nM
13,CCn1c(-c2nonc2N)nc2c(Cl)ncc(O[C@H](CCN)c3ccccc3F)c21,1460 nM
14,O=S(=O)(Nc1ccc(CCN2CCC(N3CCCCC3)CC2)cc1)c1cccc2cccnc12,1060 nM
15,Cc1ccc(CN(Cc2ccc(C(=O)N(C)C)cc2)Cc2ccc3c(c2)OCCO3)cc1C,800 nM
16,CN(C)C[C@H](O)[C@@H](c1ccccc1)c1ccc(Cl)cc1,50 nM
17,CC(=O)N(Cc1nc(-c2cc(Cl)c(Cl)s2)cs1)c1c(C)cccc1C,330 nM
18,O=C(/C=C/c1ccc(Cl)c(Cl)c1)NCCCCCN1CCCC(CNC(=O)/C=C/c2ccccc2)C1 (stereo not given),790 nM
19,CC(CCNc1c2ccccc2nc2ccccc12)N1CCN(C)CC1 (stereo not given),800 nM
20,c1ccc(CN2CCC(NCc3ccc(-c4cccc(CNC5CCCC5)c4)cc3)CC2)cc1,340 nM
21,O=C(NCCNc1ccnc2cc(Cl)ccc12)c1ccccc1F,660 nM
22,CCCCCN1CCCN(Cc2cccc(NC(=O)c3ccc(Cl)c(Cl)c3)c2)CC1,930 nM
23,CC(C)CC(C)NC(=O)C1Cc2c([nH]c3ccc(F)cc23)C2(CCN(Cc3ccccc3)CC2)N1 (stereo not given),970 nM
24,NC(=O)c1ccc(-c2ccc3ccnc(N)c3c2)cc1,420 nM
25,FC(F)(F)c1ccc2nc(-c3ccc(-c4cccc(CNCc5ccccc5)c4)cc3)[nH]c2c1,220 nM

row,SMILES,IC50
1,CCn1cnc2c(Nc3cccc([N+](=O)[O-])c3)nc(N3CCC(N4CCCCC4)CC3)nc21,950 nM
2,CN(C)CCNCc1ccc(-c2ccc(-c3nc4ccccc4[nH]3)s2)cc1,570 nM
3,Cc1cc(C2CCCCN2C)ccc1-c1ccc(C(=O)N2CCc3cc4c(cc32)C2(CCN(C)CC2)CO4)cc1 (stereo not given),790 nM
4,CCOC(=O)c1[nH]c(-c2cccc(F)c2)nc1N,750 nM
5,Cc1noc(C)c1-c1ccc2c(Nc3ccc(C#N)cc3)c(C(N)=O)cnc2c1,750 nM
6,CN(C)CCCOc1cccc(CCNCc2cccc(Oc3ccc(Cl)cc3)c2)c1,1010 nM
7,CC1CN(c2ccc(NC(=O)c3ccc(F)cc3)cc2)CCN1Cc1cccc(F)c1 (stereo not given),1350 nM
8,O=C(NC1CCCCC1)N(Cc1ccccc1-c1ccc(CNCCc2ccccc2)cc1)C1CCN(Cc2ccccc2)CC1,930 nM
9,CC(=O)N1N=C(c2cccs2)Sc2c1nc(-c1ccc(Cl)cc1)n2C(C)=O,740 nM
10,CCCCCCCCCc1c(C)[nH]c2ccccc2c1=O,160 nM
11,CCN(CC)C(=O)c1cccc(/C=C/c2ccc(-c3c(C)[nH]c(C)c(Cl)c3=O)cc2)c1,260 nM
12,CS(=O)(=O)c1ccc(Nc2ncc(-c3ccc(S(C)(=O)=O)cc3)c(OCC(F)(F)F)n2)cc1,400 nM
13,CCCc1nc2c(N3CC(NC(=O)/C=C/c4ccccc4)C3)cccc2n1C1CC1,550 nM
14,CCCc1cc(OC)c(C[C@H]2c3cc(O)c(Cl)cc3CCN2C)cc1OC,580 nM
15,Cn1nc(-c2ccc(S(=O)(=O)N3CCC(CN4CCC(c5c[nH]c6ccccc56)CC4)CC3)s2)cc1C(F)(F)F,1090 nM
16,CC[C@@]1(O)C(=O)OCc2c1cc1n(c2=O)Cc2c-1nc1cc3c(cc1c2CN1CCOCC1)OCO3,960 nM
17,COc1cc(NCC2(CNCc3cn(Cc4ccccc4)c4ccccc34)CCCCC2)nc2ccccc12,950 nM
18,Oc1ccc(CCNc2nc(NCc3ccccc3-c3ccc(C(F)(F)F)cc3)nc(N3CCCNCC3)n2)cc1,870 nM
19,Cc1cc(Cl)c(S(=O)(=O)NC(C)(C)C)cc1OCC(=O)NC1CCCCC1,550 nM
20,N#Cc1c(N)n(CCc2ccc(F)cc2)c2nc3ccccc3nc12,970 nM
21,CC(C)(C)c1ccc(S(=O)(=O)Nc2ccccc2N2CCOCC2)cc1,680 nM
22,S=C(NCCCCCN1CCC(c2c[nH]c3ccccc23)CC1)Nc1cccc(I)c1,840 nM
23,CC(=O)N(C)c1cccc(C(=O)Nc2ccc(-c3cccc(-c4nc5c(C)cccc5[nH]4)c3)cc2)c1,650 nM
24,CN1CCCN(Cc2cccc(-c3cccc(NC(=O)c4ccc(C#N)cc4)c3)c2)CC1,1140 nM
25,Cc1nc(-c2ccc(-c3ccc(C(=O)Nc4ccc(I)c(OCCN5CCCC5)c4)cc3)c(C)c2)no1,960 nM

row,SMILES,IC50
1,Cc1ccc(-n2c(Cc3cccc4ccccc34)nnc2SCCC#N)c(C)c1,460 nM
2,CC(CN(C)C)C(=O)Nc1cccc(-c2ccc(-c3nc4ccccc4[nH]3)s2)c1 (stereo not given),740 nM
3,O=C(/C=C/c1ccc(Cl)c(Cl)c1)NCCCCCN1CCC(NC(=O)NC2CCCCCC2)CC1,460 nM
4,CS(=O)(=O)NCCCNCc1ccc(-c2ccc(-c3nc4ccc(C(F)(F)F)cc4[nH]3)s2)cc1,510 nM
5,COc1ccc(NC(=O)[C@H](CC(C)C)Nc2cc(C)nc(NCCc3ccc(F)cc3)n2)cc1,920 nM
6,Cc1cc(F)ccc1-c1nc(NCC(O)CNCCc2ccccc2)nc2c1ccc(=O)n2-c1c(F)cccc1F (stereo not given),540 nM
7,CC(=O)c1ccc(-c2ccc(C(=O)NCCCCN3CCC(c4ccc5c(c4OCC(N)=O)CCCC5)CC3)cc2)s1,890 nM
8,N[C@@H](CCN1CCC(c2cccc(O)c2)CC1)Cc1ccc(F)c(F)c1,1110 nM
9,O=C(c1cccs1)N(Cc1cccc(-c2ccc(CNCCc3ccccc3)cc2)c1)C1CCN(Cc2ccccc2)CC1,860 nM
10,Cc1[nH]c2ccccc2c1C1=CCN(CCCCCNC(=O)/C=C/c2ccc(Cl)c(Cl)c2)CC1,270 nM
11,N#Cc1cccc(Nc2ncc3c(-c4cccc(NC(=O)Cc5cccc(Cl)c5)c4)c[nH]c3n2)c1,420 nM
12,Cc1cc(CNCCCCCCNCc2ccc(Cl)cc2)ccc1O,820 nM
13,CC(C)(c1ccccc1)c1ccc(O)c(CN2CCOCC2)c1,980 nM
14,Cc1cc(NCCC(=O)Nc2ccccc2)nc(NCc2ccccc2C)n1,660 nM
15,NC(N)=Nc1nc(-c2cccc(NC(=O)CCCCCCCON3C(N)=NC(N)=NC34CCCCC4)c2)cs1,40 nM
16,Cc1cc(N2CCN(CC3CCCCC3)CC2)nc(Nc2ccc(Br)cc2)n1,1090 nM
17,Cc1cc(C)c2[nH]cc(C(=O)O)c(=O)c2c1,880 nM
18,CCCCCCNC(=O)C1Cc2c([nH]c3cc(Cl)ccc23)C2(CCN(CCC)CC2)N1 (stereo not given),880 nM
19,CCCCCCCCOc1ccc(N2C(N)=NC(N)=NC2(C)C)cc1,500 nM
20,Cc1ccc2nc(C)cc(NN=Cc3ccc(Cl)cc3)c2c1,990 nM
21,O=C(Nc1ccc(C(F)(F)F)cc1)c1cccc(S(=O)(=O)NC2CCN(CC3CCCCC3)CC2)c1,850 nM
22,N#Cc1ccc2c(c1)CCN(CCC1CCC(NC(=O)/C=C/c3c[nH]c4c(Br)cccc34)CC1)CC2 (stereo not given),380 nM
23,OC1(c2ccccc2)CCN(Cc2cccc(-c3c[nH]c4nc(NC5CCCC5)ncc34)c2)C1 (stereo not given),910 nM
24,Cc1cc(NN=Cc2cccc([N+](=O)[O-])c2)c2ccccc2n1,730 nM
25,COc1ccc(CC(=O)Nc2ccc(-c3cccc(-c4nc5c(C)cccc5[nH]4)c3)cc2)cc1O,450 nM

# Source: PubChem BioAssay AID2305 (GlaxoSmithKline (GSK), 2010)
